Patent publication US8586611B2 (priority 2005, dated 2013)
Where two headings read alike, the source gives them in different places.

Assays:
Type in all cases: in vivo
Phytophthora infestans [1] = experiment: whole plant or invertebrate; conditions: for Test C disease rating (100 = 100% disease control, 0 = no disease control): tomato late blight
Phytophthora infestans [2] = experiment: whole plant or invertebrate; conditions: for Test D disease rating (100 = 100% disease control, 0 = no disease control): tomato late blight
[3] = tested on: Erysiphe graminis f. sp. tritici; experiment: Test E: wheat powdery mildew, spray the day before inoculation (disease rating, 100 = 100% disease control)
Summary of the method: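 Wheat seedlings sprayed to run-off with compound suspended in acetone/water 50/50 with 250 ppm Trem 014 (200 ppm equivalent to 500 g/ha); inoculated next day with Erysiphe graminis f. sp. tritici spore dust. Kept 7 days at 20° C, then rated 0–100% disease control versus controls.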

Plasmopara viticola = experiment: Test B: grape downy mildew, spray 24 h after inoculation (disease rating, 100 = 100% disease control)
Summary of the method: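 Grape seedlings were inoculated with Plasmopara viticola and held 24 h saturated at 20 °C, then sprayed to run-off with compound suspension (acetone/water with 250 ppm Trem 014; 200 ppm ≈ 500 g/ha). After 5 days at 20 °C and 24 h saturation, disease was rated from 0 to 100% control versus untreated.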

[4] = spray the day before inoculation, tested at 40 ppm
[5] = sprayed the day before inoculation, unmarked compounds (no asterisk, not 40 or 10 ppm)
[6] = sprayed 17 h after inoculation, unmarked compounds (no asterisk, not 40 or 10 ppm)
[7] = sprayed the day before inoculation, 7 days at 20° C., unmarked compounds (no asterisk, not 40 or 10 ppm)
[8] = sprayed 24 h after inoculation, unmarked compounds (no asterisk, not 40 or 10 ppm)
[9] = spray the day before inoculation, compounds without asterisk (not 40 or 10 ppm)
[10] = spray 17 h after inoculation, compounds without asterisk (not 40 or 10 ppm)
[11] = spray 24 h after inoculation, compounds without asterisk (not 40 or 10 ppm)

Cc1cc(C(F)(F)F)nn1CC(=O)N1CCC(c2nc(C(=O)N(C)C3c4ccccc4CCC3O)cs2)CC1 (stereo not shown) [compound 194]
Test C disease rating (100 = 100% disease control, 0 = no disease control) (Phytophthora infestans [1]; [4]): 98% | Test D disease rating (100 = 100% disease control, 0 = no disease control) (Phytophthora infestans [2]; spray 17 h after inoculation, tested at 40 ppm): 74% | Test E disease rating (100 = 100% disease control, 0 = no disease control) [3, 4]: 0% | Test B disease rating (100 = 100% disease control, 0 = no disease control) (Plasmopara viticola; spray 24 h after inoculation, tested at 40 ppm): 0%

Cc1cc(C(F)(F)F)nn1CC(=O)N1CCC(c2nc(C(=O)N(C)C3c4ccccc4CC3C)cs2)CC1 (stereo not shown) [Compound 226, N-(2,3-dihydro-2-methyl-1H-inden-1-yl)-N-methyl-2-[1-[[5-methyl-3-(trifluoromethyl)-1H-pyrazol-1-yl]acetyl]-4-piperidinyl]-4-thiazolecarboxamide]
pest or weed control at 40 ppm (Phytophthora infestans [1]; Phytophthora infestans, in Solanum lycopersicum, 144 h, read-out: Test C disease rating (100 = 100% disease control, 0 = no disease control)): 100% | pest or weed control at 40 ppm (Phytophthora infestans [2]; Phytophthora infestans, in Solanum lycopersicum, topical, 96 h, read-out: Test D disease rating (100 = 100% disease control, 0 = no disease control)): 99% | pest or weed control at 40 ppm ([3]; Blumeria graminis, topical, 168 h, spray the day before inoculation, tested at 40 ppm, read-out: Test E disease rating (100 = 100% disease control, 0 = no disease control)): 0% | pest or weed control at 40 ppm (Plasmopara viticola; Plasmopara viticola, 144 h, spray 24 h after inoculation, tested at 40 ppm, read-out: Test B disease rating (100 = 100% disease control, 0 = no disease control)): 100%

Cc1cc(C(F)(F)F)nn1CC(=O)N1CCC(c2nc(C(=O)N3CCc4ccccc4C3)cs2)CC1 [compound 296]
Test C disease rating (100 = 100% disease control, 0 = no disease control) (Phytophthora infestans [1]; [5]): 100 | Test D disease rating (100 = 100% disease control, 0 = no disease control) (Phytophthora infestans [2]; [6]): 93 | Test E disease rating (100 = 100% disease control, 0 = no disease control) [3, 7]: 0 | Test B disease rating (100 = 100% disease control, 0 = no disease control) (Plasmopara viticola; [8]): 82

Cc1cc(C(F)(F)F)nn1CC(=O)N1CCC(c2nc(C(=O)N3Cc4ccccc4C3)cs2)CC1 [compound 295]
Test C disease rating (100 = 100% disease control, 0 = no disease control) (Phytophthora infestans [1]; [5]): 95 | Test D disease rating (100 = 100% disease control, 0 = no disease control) (Phytophthora infestans [2]; [6]): 39 | Test E disease rating (100 = 100% disease control, 0 = no disease control) [3, 7]: 0 | Test B disease rating (100 = 100% disease control, 0 = no disease control) (Plasmopara viticola; [8]): 39

C=CCN(C(=O)c1csc(C2CCN(C(=O)Cc3cc(C)ccc3C)CC2)n1)[C@H](C)c1ccccc1 [compound 284]
Test C disease rating (100 = 100% disease control, 0 = no disease control) (Phytophthora infestans [1]; [5]): 21 | Test D disease rating (100 = 100% disease control, 0 = no disease control) (Phytophthora infestans [2]; [6]): 0 | Test E disease rating (100 = 100% disease control, 0 = no disease control) [3, 7]: 0 | Test B disease rating (100 = 100% disease control, 0 = no disease control) (Plasmopara viticola; [8]): 10

Cc1cc(C(F)(F)F)nn1CC(=O)N1CCCN(c2nc(C(=O)N(C)[C@@H]3CCCc4ccccc43)cs2)CC1.Cl [compound 242]
Test C disease rating (100 = 100% disease control, 0 = no disease control) (Phytophthora infestans [1]; [9]): 100% | Test D disease rating (100 = 100% disease control, 0 = no disease control) (Phytophthora infestans [2]; [10]): 73% | Test E disease rating (100 = 100% disease control, 0 = no disease control) [3, 9]: 0% | Test B disease rating (100 = 100% disease control, 0 = no disease control) (Plasmopara viticola; [11]): 16%

Cc1ccc(C)c(CC(=O)N2CCC(c3nc(C(=O)N(C)C4CCCc5occc54)cs3)CC2)c1 (stereo not shown) [compound 135]
Test C disease rating (100 = 100% disease control, 0 = no disease control) (Phytophthora infestans [1]; [9]): 51% | Test D disease rating (100 = 100% disease control, 0 = no disease control) (Phytophthora infestans [2]; [10]): 47% | Test E disease rating (100 = 100% disease control, 0 = no disease control) [3, 9]: 0% | Test B disease rating (100 = 100% disease control, 0 = no disease control) (Plasmopara viticola; [11]): 16%

CN(C(=O)c1csc(C2CCN(C(=O)Cc3cccc(Cl)n3)CC2)n1)[C@@H]1CCCc2ccccc21 [compound 214]
Test C disease rating (100 = 100% disease control, 0 = no disease control) (Phytophthora infestans [1]; [9]): 99% | Test D disease rating (100 = 100% disease control, 0 = no disease control) (Phytophthora infestans [2]; [10]): 99% | Test E disease rating (100 = 100% disease control, 0 = no disease control) [3, 9]: 0% | Test B disease rating (100 = 100% disease control, 0 = no disease control) (Plasmopara viticola; [11]): 98%

CCCCC(c1ccccc1)N(C)C(=O)c1csc(C2CCN(C(=O)Cc3cc(C)ccc3C)CC2)n1 (stereo not shown) [compound 85]
Test C disease rating (100 = 100% disease control, 0 = no disease control) (Phytophthora infestans [1]; [9]): 99% | Test D disease rating (100 = 100% disease control, 0 = no disease control) (Phytophthora infestans [2]; [10]): 9% | Test E disease rating (100 = 100% disease control, 0 = no disease control) [3, 9]: 32% | Test B disease rating (100 = 100% disease control, 0 = no disease control) (Plasmopara viticola; [11]): 99%

CC[C@H](c1ccccc1)N(C)C(=O)c1csc(C2CCN(C(=O)Cc3cccc(C)c3)CC2)n1 [compound 116]
Test C disease rating (100 = 100% disease control, 0 = no disease control) (Phytophthora infestans [1]; [9]): 49% | Test D disease rating (100 = 100% disease control, 0 = no disease control) (Phytophthora infestans [2]; [10]): 87% | Test E disease rating (100 = 100% disease control, 0 = no disease control) [3, 9]: 0% | Test B disease rating (100 = 100% disease control, 0 = no disease control) (Plasmopara viticola; [11]): 100%
